Laboratory results taken from PubChem BioAssay (NCI).
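Cultured in 96-well plates, cells were exposed to test compound for 48 hours across five concentrations. TGI: concentration producing complete growth inhibition.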

Legend:
Assay in all cases: NCI anticancer screen, dose series, 48 h
[1] = tested on: MDA-MB-435
[2] = tested on: T-47D breast
[3] = tested on: SF-295 CNS
[4] = tested on: U251 CNS
[5] = tested on: SN12C renal
[6] = tested on: LOX IMVI melanoma
[7] = tested on: UACC-257 melanoma
[8] = tested on: OVCAR-4 ovarian
[9] = tested on: A498 renal

Row | Compound | TGI [1] | TGI [2] | TGI [3] | TGI [4] | TGI [5] | TGI [6] | TGI [7] | TGI [8] | TGI [9]
1 | CC(=NNC(=S)Nc1ccccc1)c1cccc(C(C)=NNC(=S)Nc2ccccc2)n1 | > 100 µM | > 100 µM | > 42 µM | > 100 µM | > 100 µM | > 100 µM | > 100 µM | > 100 µM | > 80.8 µM
2 | Cc1ccc(S(=O)(=O)n2c3c(c4ccccc42)CCN2C[C@H]([C@H](C)Br)CC[C@@H]32)cc1 | > 100 µM | > 100 µM | > 100 µM | > 100 µM | – | > 100 µM | > 100 µM | > 100 µM | > 100 µM
3 | COC(C)(C)C1(O)CC[C@@H](C)CC1=O (stereo partly specified) | > 100 µM | – | > 100 µM | > 100 µM | > 100 µM | – | > 100 µM | > 100 µM | > 100 µM
4 | O=C(O)c1ccccc1CC(Cc1ccc2c(c1)CCC2)C(=O)O (stereo unspecified) | > 100 µM | > 100 µM | > 100 µM | > 100 µM | > 100 µM | > 100 µM | > 100 µM | > 100 µM | > 100 µM
5 | CC(c1ccccc1)N1CCN(C(C)c2ccccc2)CC1 (stereo unspecified) | > 100 µM | > 100 µM | > 100 µM | > 100 µM | > 100 µM | > 100 µM | > 100 µM | > 100 µM | > 100 µM
6 | O=C1C=C/C(=N\N=C(c2ccccc2)c2ccccc2)O1 | > 10 µM | > 10 µM | > 10 µM | – | > 10 µM | > 10 µM | > 10 µM | > 10 µM | –
7 | COc1cc(OC)cc(C(=O)CC(=O)c2cc(OC)cc(OC)c2)c1 | > 100 µM | > 100 µM | > 100 µM | > 100 µM | > 100 µM | – | > 100 µM | – | > 100 µM
8 | CC(=O)NC1C(OCc2ccccc2)OC(CO)C(O)C1OCC(=O)N[C@@H](C)C(=O)N[C@H](CCC(=O)NCCCNc1c2ccccc2nc2cccc([N+](=O)[O-])c12)C(N)=O (stereo partly specified) | 0.132 µM | 0.25 µM | 1.33 µM | 4.46 µM | 0.327 µM | 0.259 µM | 0.177 µM | 0.267 µM | 0.944 µM
9 | COc1ccc(C2OC(c3ccncc3)=NN2C)cc1F (stereo unspecified) | > 100 µM | > 100 µM | > 100 µM | > 100 µM | > 100 µM | > 100 µM | > 100 µM | > 100 µM | > 100 µM
10 | COc1ccc(C(=O)/C=C/c2ccc(OCCCOc3ccc(/C=C/C(=O)c4ccc(OC)cc4)cc3)cc2)cc1 | > 100 µM | > 100 µM | > 100 µM | > 100 µM | > 100 µM | – | > 100 µM | > 100 µM | –
11 | O=C(O)CN1CCN2CCCCCN(CC1)CCN(CC(=O)O)CC2 | > 100 µM | > 100 µM | > 100 µM | > 100 µM | > 100 µM | > 100 µM | > 100 µM | > 100 µM | > 100 µM
12 | O=C1NC2c3c(I)sc(I)c3C(O)C2O1 (stereo unspecified) | > 100 µM | > 100 µM | > 100 µM | > 100 µM | > 100 µM | > 100 µM | > 100 µM | > 100 µM | > 100 µM
13 | CCOC(=O)c1c(-c2ccc(O)c(OC)c2)c(C#N)c(=S)n(C2OC(CO)C(O)C(O)C2O)c1-c1ccccc1 (stereo unspecified) | > 100 µM | – | > 100 µM | > 100 µM | > 100 µM | > 100 µM | > 100 µM | > 100 µM | > 100 µM
14 | O=c1[nH][nH]c(=O)n1CCCCCCn1c(=O)[nH][nH]c1=O | > 100 µM | > 100 µM | – | > 100 µM | > 100 µM | > 100 µM | > 100 µM | > 100 µM | > 100 µM
15 | CCN1CN(c2ccccc2)C2(CCN(CC3COc4ccccc4O3)CC2)C1=O (stereo unspecified) | 67.2 µM | 67.4 µM | > 100 µM | > 100 µM | > 100 µM | 45.2 µM | > 100 µM | – | 72.5 µM
16 | O=C(O)[C@H]1CCCN1CP(=O)(O)CN1CCC[C@@H]1C(=O)O | > 100 µM | > 100 µM | > 100 µM | > 100 µM | > 100 µM | > 100 µM | > 100 µM | > 100 µM | –
17 | Cc1c(/C=N\NC(=S)NCCNC(=S)N/N=C\c2c(C)n(C)n(-c3ccccc3)c2=O)c(=O)n(-c2ccccc2)n1C | > 100 µM | > 100 µM | > 100 µM | > 100 µM | – | – | > 100 µM | > 100 µM | > 100 µM
18 | O=C1CC2(CCC(O)(c3ccc4ccccc4c3)C(C(=O)c3ccc4ccccc4c3)C2)C(=O)c2ccccc2N1 (stereo unspecified) | > 100 µM | > 100 µM | > 100 µM | > 100 µM | > 100 µM | > 100 µM | > 100 µM | – | > 100 µM
19 | CC(C)c1cc2c(c(O)c1O)[C@@]1(C(=O)O)CCCC(C)(C)[C@@H]1CC2 | 34.5 µM | 55 µM | 68.5 µM | 30.3 µM | 64.8 µM | 53 µM | 33.4 µM | > 100 µM | –
20 | O=C1c2cc(-c3ccccc3)cnc2S(=O)(=O)N1c1ccc(Br)cc1 | > 100 µM | > 100 µM | 38.5 µM | 90.3 µM | > 100 µM | > 100 µM | > 100 µM | – | > 100 µM
21 | CN1CCOC1c1ccccc1O (stereo unspecified) | > 100 µM | > 100 µM | > 100 µM | > 100 µM | – | > 100 µM | > 100 µM | > 100 µM | > 100 µM
22 | O=[N+]([O-])C(=C(Nc1cccc2cccnc12)Nc1cccc2cccnc12)C(Cl)=C(Cl)Cl | > 100 µM | > 100 µM | > 100 µM | > 100 µM | > 95.7 µM | > 100 µM | – | > 96.1 µM | > 100 µM
23 | C=C(C(=O)OCC)C(=O)OCC | > 100 µM | > 100 µM | > 100 µM | > 100 µM | > 100 µM | > 100 µM | > 100 µM | – | –
24 | O=C1NC(N2CCOCC2)=N/C1=C\c1ccco1 | > 100 µM | > 100 µM | > 100 µM | > 100 µM | > 100 µM | > 100 µM | > 100 µM | > 100 µM | –
25 | O=C(NCP(=O)(Oc1ccccc1)Oc1ccccc1)OCc1ccccc1 | > 100 µM | > 100 µM | > 100 µM | > 100 µM | > 100 µM | > 100 µM | > 100 µM | > 100 µM | –
